Experiments:
GI.1c/RHDV FRG 3CLpro = GI.1c/RHDV FRG 3CLpro (Rabbit hemorrhagic disease virus, UniProt P27410); assay: FRET assay, 3CLpro of GI.1c/RHDV FRG strain; format: biochemical; conditions: 30 min preincubation with 3CLpro, 30 min with substrate, mean ± SEM, at least three experiments, read-out: IC50 GI.Ic/RHDV FRG
GI.3P-GI.2 TX1 3CLpro = GI.3P-GI.2 TX1 3CLpro (Rabbit hemorrhagic disease virus 2, UniProt A0A7M4BDB7); assay: FRET assay, 3CLpro of GI.3P-GI.2 TX1 strain; format: biochemical, GI.3P-GI.2 (RHDV2/b); conditions: 30 min preincubation with 3CLpro, 30 min with substrate, mean ± SEM, at least three experiments
GII.1/EBHSV G104 3CLpro = GII.1/EBHSV G104 3CLpro (European brown hare syndrome virus, UniProt Q96725); assay: FRET assay, 3CLpro of GII.1/EBHSV G104 strain; format: biochemical
3CLpro of GI.3P-GI.2 TX1 = biological target: T1, 3CLpro of GI.3P-GI.2 TX1 (Rabbit hemorrhagic disease virus 2, UniProt A0A7M4BDB7); assay: cell-based; set-up: species or system GI.3P-GI.2 (RHDV2/b)
T1 sequence (A0A7M4BDB7 1109-1251): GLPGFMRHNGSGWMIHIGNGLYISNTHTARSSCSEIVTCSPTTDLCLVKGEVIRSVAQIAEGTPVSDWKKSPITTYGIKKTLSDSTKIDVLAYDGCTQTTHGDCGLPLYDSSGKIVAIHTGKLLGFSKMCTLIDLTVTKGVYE

[1] = Cytotoxicity assay (CytoTox 96, lactate dehydrogenase release); format: cell-based; conditions: human, 293T cells, up to 100 μM
Experimental: To determine the cytotoxicity of the compounds, 70 to 80% confluent 293T cells in a 96-well plate were incubated with serial dilutions of each compound (up to 100 μM) for 5 h. Cell cytotoxicity was determined by a CytoTox 96 nonradioactive assay kit (Promega, Madison, WI) by measuring a cytosolic enzyme lactate dehydrogenase, which is released upon cell lysis, following the manufacturer’s instructions, and the 50% cytotoxic concentration (CC50) value for each compound was calculated using GraphPad Prism software. The nonspecific cytotoxic effects of these compounds were also reported previously ([30], [31], [40], [43], [44]).

FIPV 3CLpro = system: FIPV 3CLpro; set-up: method as in PMID 30342822; conditions: FRET assay; read-out: IC50 against FIPV 3CLpro; cited from earlier work
FIP = system: FIP; set-up: method as in PMID 27027316, PMID 28901812; conditions: cited from earlier work
murine norovirus = system: murine norovirus; set-up: method as in PMID 25761614; conditions: intestinal tracts of mice; cited from earlier work

GI.1c/RHDV FRG 3CLpro, sequence (P27410 1109-1251 limits assumed): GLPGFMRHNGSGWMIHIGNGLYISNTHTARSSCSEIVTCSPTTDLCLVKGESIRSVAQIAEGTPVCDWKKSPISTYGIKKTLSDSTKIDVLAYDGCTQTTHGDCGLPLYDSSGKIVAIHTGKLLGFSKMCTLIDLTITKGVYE
GII.1/EBHSV G104 3CLpro, sequence (Q96725 1102-1244 limits assumed): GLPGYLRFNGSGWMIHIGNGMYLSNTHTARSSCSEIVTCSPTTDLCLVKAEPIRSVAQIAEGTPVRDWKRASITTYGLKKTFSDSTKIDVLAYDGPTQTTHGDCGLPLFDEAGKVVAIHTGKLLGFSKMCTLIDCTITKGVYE

Row | Compound | IC50 (GI.1c/RHDV FRG 3CLpro) [µM] | IC50 (GI.3P-GI.2 TX1 3CLpro) [µM] | IC50 (GII.1/EBHSV G104 3CLpro) [µM] | EC50 (3CLpro of GI.3P-GI.2 TX1) [µM] | CC50 at 5 h [1] [µM] | IC50 (FIPV 3CLpro) [µM] | in vivo efficacy in cats with FIP (FIP) | in vivo efficacy, murine norovirus replication (murine norovirus)
1 | O=C(N[C@@H](CC1CCCCC1)C(=O)N[C@H](C[C@@H]1CCNC1=O)C(=O)C(=O)NC1CC1)OCc1cccc(Cl)c1 [GC591] | 0.59 ± 0.04 | 0.73 ± 0.27 | 0.43 ± 0.07 | 9.8 ± 1.26 | > 100 |  |  | 
2 | CC(C)CC(NC(=O)C(Cc1cccc2ccccc12)NC(=O)OCc1ccccc1)C(=O)NC(C=O)CC1CCNC1=O (stereo not shown) [NPI52] | 0.31 ± 0.02 | 0.57 ± 0.36 | 0.3 ± 0.09 | 4 ± 0.43 | > 100 |  |  | 
3 | CC(C)C[C@H](NC(=O)OCc1ccccc1)C(=O)N[C@H](C[C@@H]1CCNC1=O)C(O)S(=O)(=O)O (stereo partly shown) [GC376] | 1.21 | 1.39 | 1 | 5.35 ± 0.14 | > 100 | 0.5 | reduced viral replication and improved survival | 
4 | O=C[C@@H](C[C@@H]1CCNC1=O)NC(=O)[C@H](CC1CCCCC1)NC(=O)OCc1cccc(Cl)c1 [GC583] | 0.08 ± 0.02 | 0.1 ± 0.08 | 0.05 ± 0.01 | 0.46 ± 0.05 | > 100 |  |  | significantly decreasing murine norovirus replication in the intestinal tracts of mice without toxicity
5 | O=C[C@@H](C[C@@H]1CCNC1=O)NC(=O)[C@H](CC1CCCCC1)NC(=O)OCc1ccccc1 [GC543] | 0.09 ± 0.03 | 0.12 ± 0.07 | 0.07 ± 0.01 | 0.55 ± 0.06 | > 100 |  |  | 
